# Data as given in US20070117182A1, “Nucleic acids conferring transcriptional responsiveness on the RANKL gene promoter and uses thereof” (Wisconsin Alumni Research Foundation, priority 2005, published 2007).
# Legend:
# OPN promoter = experiment: ChIP of VDR/RXR at OPN promoter in ST2 cells; format: cell-based, mouse; settings: 10^-7 M, 6 hours
# Experimental: FIG. 3. ChIP/chip analysis of the RANKL gene locus. A) ChIP: ST2 cells were treated with either vehicle or 1,25(OH)2D3 (10^−7 M) and after 6 hours subjected to ChIP using antibodies to VDR, RXR and IgG. Precipitated DNA was analyzed for the presence of either the Cyp24 or the OPN promoter. B) Arrangement of the mouse RANKL gene locus and position of flanking genes. RANKL gene is transcribed on the reverse strand (right to left). C) DNA chip: Precipitated DNA was linearly amplified and then subjected to chip analysis using tiled oligonucleotide arrays containing 50-mers spanning the RANKL gene locus as described in the text. Hybridization data derived from the arrays are indicated in log2 scale across the locus with nucleotide positions on chromosome 14 indicated on the X axis. The first set of two arrays provide linear data comparing IgG (±1,25(OH)2D3) and VDR (±1,25(OH)2D3) over the RANKL upstream regions. The second set of three arrays provides an expanded view of hybridization data comparing VDR (±1,25(OH)2D3), VDR (+1,25(OH)2D3 vs input DNA) and RXR (+1,25(OH)2D3 vs input DNA). VDR/RXR binding regions D1-D5 are tracked by the shading.
# As a first step, the inventors treated ST2 cells with either vehicle or 1,25(OH)2D3 for 6 hours, fixed the cells with formalin, and then subjected the cell lysates to ChIP analysis using antibodies to VDR, RXR, and an IgG control. […]
# mouse RANKL VDRE = experiment: RANKL VDRE in TK promoter, luciferase reporter in ST2 cells; format: cell-based
# Excerpt: FIG. 8. The mouse RANKL VDRE is inducible by 1,25(OH)2D3. The mouse RANKL VDRE (sequence seen in FIG. 7) was cloned into the TK promoter, transfected into ST2 cells and evaluated for transcriptional regulation by 1,25(OH)2D3. A 10 to 15-fold induction mediated by the RL VDRE is observed. A similar induction is observed in the context of the RL minimal promoter. Data are the average of triplicate determinations, SEM.
# ChIP data are of inherent low resolution, making it difficult to identify the specific sequence to which the VDR/RXR heterodimer binds within the RL-CCL. 1,25(OH)2D3-inducibility of the RL-CCL DNA fragment, however, provides the opportunity to precisely map the location of the VDRE using mutagenesis. The inventors therefore subjected the RL-CCL DNA fragment to 5′ deletion analysis using PCR and prepared a series of fragments of the RL-CCL with increasingly fore-shortened 5′ termini as illustrated in FIG. 7a. These RANKL gene fragments were similarly cloned into the pTK-luc vector and their activities together with the wildtype D5 fragment examined in response to 1,25(OH)2D3, glucocorticoids and the combination following transfection into ST2 cells. […] As well, this region of the RL-CCL also contains a number of consensus GR binding half-sites, and at least one consensus GRE duplex site.
smiles,measurement,setting,value
"C=C1/C(=C\C=C2/CCC[C@]3(C)[C@@H]([C@H](C)CCCC(C)(C)O)CC[C@@H]23)C[C@@H](O)C[C@@H]1O [1,25(OH)2D3]",abundance of OPN promoter DNA precipitated with VDR and RXR antibodies,OPN promoter,clearly increased the abundance of DNA
same,induction mediated by the RL VDRE,mouse RANKL VDRE,10 to 15 fold
